Test results: paper PMC12086093 (Nature Structural & Molecular Biology, 2025)

Experiments:
AasS [1] = target: T1, AasS (Vibrio harveyi, UniProt Q00IB3); assay: ITC, one set of sites; type: binding
T1 sequence (Q00IB3 1-533): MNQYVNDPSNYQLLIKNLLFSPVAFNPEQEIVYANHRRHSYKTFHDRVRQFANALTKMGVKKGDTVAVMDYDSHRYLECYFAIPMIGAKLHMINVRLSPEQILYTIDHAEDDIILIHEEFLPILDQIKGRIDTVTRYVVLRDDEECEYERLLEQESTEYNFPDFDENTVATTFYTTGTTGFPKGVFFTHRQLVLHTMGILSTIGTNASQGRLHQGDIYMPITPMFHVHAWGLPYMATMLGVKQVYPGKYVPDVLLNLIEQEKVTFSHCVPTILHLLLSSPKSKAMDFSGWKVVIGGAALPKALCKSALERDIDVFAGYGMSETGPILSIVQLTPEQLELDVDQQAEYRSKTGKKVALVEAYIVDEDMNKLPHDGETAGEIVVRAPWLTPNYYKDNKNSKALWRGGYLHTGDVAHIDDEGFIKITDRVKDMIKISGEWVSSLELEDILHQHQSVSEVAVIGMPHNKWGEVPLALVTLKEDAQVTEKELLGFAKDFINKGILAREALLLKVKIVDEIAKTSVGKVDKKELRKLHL

AasS [2] = target: T1, AasS; assay: cryo-EM structure; type: binding; settings: 1.5 mM ATP, no Mg2+; hexamer; phosphate density not continuous
AasS [3] = target: T1, AasS; assay: cryo-EM structure; type: binding; settings: 2 mM MgCl2, 5 mM AMP-PNP; tetramer; ATP site
SEC = target: the molecule itself; assay: SEC

`CCOC(=O)CCCCCC(=O)O` [E-pim] was tested, and the Kd (AasS [1]) was about 6.45 µM.

`Nc1ncnc2c1ncn2[C@@H]1O[C@H](COP(=O)(O)OP(=O)(O)OP(=O)(O)O)[C@@H](O)[C@H]1O` [ATP] was tested, and the “cryo-EM structure (2.45 Å)” value (AasS [2]) was “the cryo-EM structure of ATP-liganded AasS remains a hexamer ring”.

For `Nc1ncnc2c1ncn2[C@@H]1O[C@H](COP(=O)(O)OP(=O)(O)NP(=O)(O)O)[C@@H](O)[C@H]1O` [AMP-PNP], the “cryo-EM structure (2.68 Å)” value (AasS [3]) was “continuous density for the bound AMP-PNP cofactor”.

B1: Vibrio harveyi acyl-ACP synthetase AasS, recombinant with an N-terminal 6xHis-tag (enzyme, UniProt Q00IB3 1-533, looked up)
chain: T1 sequence (Q00IB3 1-533)
In the case of B1, the “stoichiometry N” value (SEC) is reported as 6.
